Where two headings read alike, the source gives them in different places.
How the values were obtained:
HRAS wild-type protein = HRAS wild-type protein (Homo sapiens, UniProt P01112); assay: Binding to HRAS by surface plasmon resonance (SPR), KD and KD ratio to KRAS
Summary of the method: (§1)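 Captured GDP-RAS (~100–300 RU) was exposed to increasing compound concentrations, 75 s per step, in running buffer with 10 µM GDP, 10 mM MgCl2 and 4% DMSO at pH 7.4.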

[1] = test system: human lung cancer strain NCI-H441; assay: NCI-H441 cell proliferation inhibitory activity (CellTiter-Glo, 4 days); assay type: cell-based; settings: read-out: NCl-H441 IC50
Summary of the method: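 Step one: dispense the test compound in serial DMSO dilutions. Step three: add the reagent and measure […].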

[2] = target: GDP-bound KRAS wild-type protein (Homo sapiens, UniProt P01116); assay: Binding to KRAS by surface plasmon resonance (SPR), dissociation constant KD
GDP-bound KRAS wild-type protein, sequence (P01116 1-188 isoform P01116-2): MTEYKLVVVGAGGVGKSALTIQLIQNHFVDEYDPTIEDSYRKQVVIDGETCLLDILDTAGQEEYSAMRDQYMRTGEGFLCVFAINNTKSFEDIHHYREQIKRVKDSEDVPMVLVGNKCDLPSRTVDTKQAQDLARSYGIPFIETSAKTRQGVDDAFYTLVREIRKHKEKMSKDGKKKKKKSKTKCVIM
Summary of the method: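 SPR, 30°C: Avi-biotin RAS·GDP captured via Biotin CAPture (~100–300 RU); running buffer HBS pH 7.4, 1 mM DTT, 10 mM MgCl2, 0.01% Tween 20, 10 µM GDP, 4% DMSO. Single-cycle kinetics, 100 µL/min, 75 s injections; 1:1 model → KD.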

[3] = target: GDP-bound NRAS wild-type protein (Homo sapiens, UniProt P01111); assay: Binding to NRAS by surface plasmon resonance (SPR), KD and KD ratio to KRAS
GDP-bound NRAS wild-type protein, sequence (P01111 whole entry): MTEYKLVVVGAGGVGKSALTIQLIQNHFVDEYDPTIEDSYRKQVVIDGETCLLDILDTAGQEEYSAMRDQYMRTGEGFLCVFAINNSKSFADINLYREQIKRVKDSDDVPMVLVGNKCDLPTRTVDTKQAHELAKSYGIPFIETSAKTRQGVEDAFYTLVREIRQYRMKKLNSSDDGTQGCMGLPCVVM
Summary of the method: as §1

[4] = ratio of KD for HRAS wild-type protein to KD for KRAS
[5] = ratio of KD for GDP-bound NRAS wild-type protein to KD for KRAS
[6] = ratio of KD with respect to HRAS wild-type protein to KD with respect to KRAS
[7] = 50% proliferation inhibitory concentration, four days
[8] = Single Cycle Kinetics, 1:1 binding model
[9] = ratio of KD with respect to GDP-bound NRAS wild-type protein to KD with respect to KRAS

HRAS wild-type protein, sequence (P01112 whole entry): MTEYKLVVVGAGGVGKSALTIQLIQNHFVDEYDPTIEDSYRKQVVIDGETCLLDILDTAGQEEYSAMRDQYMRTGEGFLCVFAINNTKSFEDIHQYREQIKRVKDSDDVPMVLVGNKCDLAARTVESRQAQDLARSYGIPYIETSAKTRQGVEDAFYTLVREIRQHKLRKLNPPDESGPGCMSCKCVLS

IC50 ([1]; NCI-H441 cells, 4 days) | Kd ([2]; Single Cycle Kinetics) | Kd ([2]; 1:1 binding model) | IC50 [1, 7] | Kd [2, 8] | SMILES | HRAS /KRAS (HRAS wild-type protein; [4]) | NRAS /KRAS [3, 5] | HRAS /KRAS (HRAS wild-type protein; [6]) | NRAS /KRAS [3, 9]
23.9 nM | 0.59 nM | – | – | – | CCO[C@@H]1C[C@H]2C(=O)NC(C)(C)C(=O)N(C)[C@@H](C3CCCC3)C(=O)N(C)[C@H](C(=O)N(C)C)CC(=O)N(C)[C@@H](CC(C)C)C(=O)N[C@@H]([C@@H](C)CC)C(=O)N(C)CC(=O)N(C)[C@H]3C/C(F)=C\CCN(C3=O)[C@@H](Cc3ccc(C)cc3)C(=O)N(C)CC(=O)N[C@@H](CCc3cc(F)c(C(F)(F)F)c(F)c3)C(=O)N2C1 [PP3523] | B (a compound having 3 or more and less than 10 is denoted as B) | B (a compound having 3 or more and less than 10 is denoted as B) | – | –
28.2 nM | – | 0.12 nM | – | – | CCOC[C@H]1C(=O)N[C@@H]([C@@H](C)CC)C(=O)N(C)CC(=O)N(C)[C@H]2C/C=C\CCN(C2=O)[C@@H](Cc2ccc(C)cc2)C(=O)N(C)CC(=O)N[C@@H](CCc2ccc(C(F)(F)F)c(OC)c2)C(=O)N2C[C@H](C)C[C@H]2C(=O)NC2(CC(C)(C)C2)C(=O)N(C)[C@@H](C2CCCC2)C(=O)N(C)[C@H](C(=O)N(C)C)CC(=O)N1C [PP2393] | A (a compound having 10 or more and less than 20 is denoted as A) | A (a compound having 10 or more and less than 20 is denoted as A) | – | –
196 nM | 5 nM | – | – | – | C#CC[C@H]1C(=O)N[C@@H]([C@@H](C)CC)C(=O)N2CCCCC[C@H]2C(=O)N(C)[C@H]2C/C=C\CCN(C2=O)[C@@H](Cc2ccc(C)cc2)C(=O)N(C)CC(=O)N[C@@H](CCc2ccc(C(F)(F)F)c(OC)c2)C(=O)N2C[C@H](OCC)C[C@H]2C(=O)N(C)C2(CCC2)C(=O)N(C)[C@@H](C2CCCC2)C(=O)N(C)[C@H](C(=O)N(C)C)CC(=O)N1C [PP3267] | B (a compound having 3 or more and less than 10 is denoted as B) | A (a compound having 10 or more and less than 20 is denoted as A) | – | –
58.5 nM | 1.4 nM | – | – | – | CCCN(C)C(=O)[C@@H]1CC(=O)N(C)[C@@H](CC(C)C)C(=O)N[C@@H]([C@@H](C)CC)C(=O)N2CCC[C@H]2C(=O)N(C)[C@H]2C/C=C\CCN(C2=O)[C@@H](Cc2ccc(C(F)(F)F)cc2)C(=O)N(C)CC(=O)N[C@@H](CCc2cc(F)c(C(F)(F)F)c(F)c2)C(=O)N2C[C@H](OCC)C[C@H]2C(=O)N[C@]2(C[C@@H](OC)C2)C(=O)N(C)[C@@H](C2CCCC2)C(=O)N1C [PP3354] | A (a compound having 10 or more and less than 20 is denoted as A) | A (a compound having 10 or more and less than 20 is denoted as A) | – | –
8.9 nM | 0.062 nM | – | – | – | CCC[C@H]1C(=O)N[C@@H]([C@@H](C)CC)C(=O)N(C)CC(=O)N(C)[C@H]2C/C=C\CCN(C2=O)[C@@H](Cc2ccc(C(F)(F)F)cc2)C(=O)N(C)CC(=O)N[C@@H](CCc2ccc(C(F)(F)F)c(OC)c2)C(=O)N2CC3(CC3)C[C@H]2C(=O)NC2(CCC2)C(=O)N(C)[C@@H](C2CCCC2)C(=O)N(C)[C@H](C(=O)N(C)C)CC(=O)N1C [PP3438] | A (a compound having 10 or more and less than 20 is denoted as A) | A (a compound having 10 or more and less than 20 is denoted as A) | – | –
8.4 nM | 0.82 nM | – | – | – | CCC[C@H]1C(=O)N[C@@H]([C@@H](C)CC)C(=O)N(C)CC(=O)N(C)[C@H]2C/C=C\CCN(C2=O)[C@@H](Cc2ccc(C(F)(F)F)cc2)C(=O)N(C)CC(=O)N[C@@H](CCc2cc(F)c(C(F)(F)F)c(F)c2)C(=O)N2CC3(CC3)C[C@H]2C(=O)N(C)C2(CCC2)C(=O)N(C)[C@@H](C(CC)CC)C(=O)N(C)[C@H](C(=O)N(C)C)CC(=O)N1C [PP3357] | A (a compound having 10 or more and less than 20 is denoted as A) | A (a compound having 10 or more and less than 20 is denoted as A) | – | –
91.3 nM | – | 2.6 nM | – | – | CCC(CC)[C@H]1C(=O)N(C)[C@H](C(=O)N(C)C)CC(=O)N(C)[C@@H](COC)C(=O)N[C@@H]([C@@H](C)CC)C(=O)N(C2CC2)CC(=O)N(C)[C@H]2C/C=C\CCN(C2=O)[C@@H](Cc2ccc(C)cc2)C(=O)N(C)CC(=O)N[C@@H](CCc2ccc(Cl)c(Cl)c2)C(=O)N2C[C@H](OC(C)C)C[C@H]2C(=O)NC2(CC(C)(C)C2)C(=O)N1C [PP2509] | A (a compound having 10 or more and less than 20 is denoted as A) | AA (a compound having 20 or more is denoted as AA) | – | –
– | – | – | 305 nM | 1.1 nM | CCO[C@@H]1C[C@H]2C(=O)NC3(CCC3)C(=O)N(C)[C@@H](C3CCCC3)C(=O)N(C)[C@H](C(=O)N(C)C)CC(=O)N(C)[C@@H](CC3CCCC3)C(=O)N[C@@H]([C@@H](C)CC)C(=O)N(C)CC(=O)N(C)[C@H]3C/C=C\CCN(C3=O)[C@@H](Cc3ccc(F)cc3)C(=O)N(C)CC(=O)N[C@@H](CCc3ccc4sccc4c3)C(=O)N2C1 [PP1390] | – | – | A (a compound having 10 or more and less than 20 is denoted as A) | A (a compound having 10 or more and less than 20 is denoted as A)
78.6 nM | 2.5 nM | – | – | – | CCCO[C@@H]1C[C@H]2C(=O)NC3(CC(C)(C)C3)C(=O)N(C)[C@@H](C3CCCC3)C(=O)N(C)[C@H](C(=O)N(C)CC)CC(=O)N[C@@H](COCC)C(=O)N[C@@H]([C@@H](C)CC)C(=O)N(C3CC3)CC(=O)N(C)[C@H]3C/C=C\CCN(C3=O)[C@@H](Cc3ccc(C)cc3)C(=O)N(C)CC(=O)N[C@@H](CCc3ccc(C(F)(F)F)c(Cl)c3)C(=O)N2C1 [PP3429] | A (a compound having 10 or more and less than 20 is denoted as A) | A (a compound having 10 or more and less than 20 is denoted as A) | – | –
– | – | – | 10.2 nM | 0.056 nM | CC[C@H](C)[C@@H]1NC(=O)[C@H](CC)N(C)C(=O)C[C@@H](C(=O)N(C)C)N(C)C(=O)[C@H](C2CCCC2)N(C)C(=O)C2(CCC2)NC(=O)[C@@H]2CC(F)(F)CN2C(=O)[C@H](CCc2cc(F)c(C(F)(F)F)c(F)c2)NC(=O)CN(C)C(=O)[C@H](Cc2ccc(C(F)(F)F)cc2)N2CC/C=C\C[C@@H](C2=O)N(C)C(=O)CN(C)C1=O [PP1129] | – | – | B (a compound having 3 or more and less than 10 is denoted as B) | A (a compound having 10 or more and less than 20 is denoted as A)
7.2 nM | – | 0.22 nM | – | – | CCO[C@@H]1C[C@H]2C(=O)NC3(CC(C)(C)C3)C(=O)N(C)[C@@H](C3CCCC3)C(=O)N(C)[C@H](C(=O)N(CC)CC)CC(=O)N(C)[C@@H](COC)C(=O)N[C@@H]([C@@H](C)CC)C(=O)N(C)CC(=O)N(C)[C@H]3C/C=C\CCN(C3=O)[C@@H](Cc3ccc(C)cc3)C(=O)N(C)CC(=O)N[C@@H](CCc3cc(F)c(C(F)(F)F)c(F)c3)C(=O)N2C1 [PP2403] | A (a compound having 10 or more and less than 20 is denoted as A) | A (a compound having 10 or more and less than 20 is denoted as A) | – | –
18.4 nM | 0.2 nM | – | – | – | CCO[C@@H]1C[C@H]2C(=O)NC3(CC(C)(C)C3)C(=O)N(C)[C@@H](C3CCCC3)C(=O)N(C)[C@H](C(=O)N(C)C)CC(=O)N[C@@H](CC3CC3)C(=O)N[C@@H]([C@@H](C)CC)C(=O)N(C)CC(=O)N(C)[C@H]3C/C=C\CCN(C3=O)[C@@H](Cc3ccc(C(F)(F)F)cc3)C(=O)N(C)CC(=O)N[C@@H](CCc3ccc(C(F)(F)F)c(OC)c3)C(=O)N2C1 [PP3448] | A (a compound having 10 or more and less than 20 is denoted as A) | A (a compound having 10 or more and less than 20 is denoted as A) | – | –
30.5 nM | – | 0.84 nM | – | – | CCO[C@@H]1C[C@H]2C(=O)NC3(CC(C)(C)C3)C(=O)N(C)[C@@H](C(CC)CC)C(=O)N(C)[C@H](C(=O)N(C)C)CC(=O)N(C)[C@@H](CC3CC3)C(=O)N[C@@H]([C@@H](C)CC)C(=O)N(C)CC(=O)N(C)[C@H]3C/C=C\CCN(C3=O)[C@@H](CC3CCC(F)(F)CC3)C(=O)N(C)CC(=O)N[C@@H](CCc3ccc(C(F)(F)F)c(OC)c3)C(=O)N2C1 [PP2480] | A (a compound having 10 or more and less than 20 is denoted as A) | A (a compound having 10 or more and less than 20 is denoted as A) | – | –
4.5 nM | 0.019 nM | – | – | – | CCC[C@H]1C(=O)N[C@@H]([C@@H](C)CC)C(=O)N(C)CC(=O)N(C)[C@H]2C/C=C\CCN(C2=O)[C@@H](Cc2ccc(C)cc2)C(=O)N(C)CC(=O)N[C@@H](CCc2cc(F)c(C(F)(F)F)c(F)c2)C(=O)N2CC3(CC3)C[C@H]2C(=O)N(C)C2(CCC2)C(=O)N(C)[C@@H](CC(C)(C)C)C(=O)N(C)[C@H](C(=O)N(C)C)CC(=O)N1C [PP3333] | B (a compound having 3 or more and less than 10 is denoted as B) | B (a compound having 3 or more and less than 10 is denoted as B) | – | –
15.2 nM | 0.81 nM | – | – | – | CCCO[C@@H]1C[C@H]2C(=O)NC3(CC(C)(C)C3)C(=O)N(C)[C@@H](C3CCCC3)C(=O)N(C)[C@H](C(=O)N(C)CC)CC(=O)N(C)[C@@H](COCC)C(=O)N[C@@H]([C@@H](C)CC)C(=O)N(C3CC3)CC(=O)N(C)[C@H]3C/C=C\CCN(C3=O)[C@@H](Cc3ccc(C(F)(F)F)cc3)C(=O)N(C)CC(=O)N[C@@H](CCc3ccc(C(F)(F)F)c(Cl)c3)C(=O)N2C1 [PP3403] | A (a compound having 10 or more and less than 20 is denoted as A) | A (a compound having 10 or more and less than 20 is denoted as A) | – | –
